Like-named read-outs stand apart in the source and are kept apart here.
Legend:
MTT assay in H1299 cells = assay type: cell-based; details: human, H1299 cells (H1299/PhTERT-driven SEAP reporter system), H1299, read-out: MTT (Inhibition μM ± SD); for viability at 24 h, 1 µM: compound concentration 1 μM; for viability at 24 h, 10 µM: compound concentration 10 μM; for viability at 24 h, 100 µM: compound concentration 100 μM
Protocol: H1299 is a non-small cell lung cancer cell line with telomerase activity. The cell extract of H1299 cell lines can be used for selecting the telomerase activity inhibitors in vitro and the telomerase activity-inhibited substances in vivo. H1299 cell line was incubated with RPMI 1640 medium supplemented with 10% of fetal bovine serum (FBS). A total of 2×10^3 […] cells were seeded in the 96-well cell culture plate, and incubated with DMEM (GIBCO®)/glucose mixture and Medium 199 (GIBCO®)/10% FBS/1 mM sodium pyruvate (GIBCO®)/4 mM L-glutamine (GIBCO®) mixture at a ratio of 4:1 at 37° C. for 24 hours. […] After 48 hours of drug treatment, the cultured medium were collected for performing the analysis of SEAP activity. The cells were washed with 1×PBS once immediately, and the MTT assay was performed to compare the compounds with the relative toxicity or the influence to the proliferation and activity. Mitochondria is the place for cellular respiration, and there are many reductive reactions catalyzed by dehydrogenases. MTT is a water-soluble yellow compound, and the […] will be formed after reduction. This crystal can be dissolved in the organic solvent, and has high absorbance at the wavelength of 570 nm. The higher cellular activity or more cell numbers, the more generated crystal violets. Therefore, the cellular activity and cell number can be obtained by the MTT assay. MTT solution was prepared by dissolving MTT powder in PBS solution to achieve 5 mg/ml, filtrated and stored at 4° C. Lysis buffer contained 20% (w/v) of SDS in 50% of N,N-dimethylformamide (DMF, Riedel-deHaën). After the cells were incubated in the 96-well culture plate, the original medium was discarded, 100 μl of the fresh serum-free medium per well and 25 μl of MTT solution per well were added in respectively, and the cells were further incubated in the CO2 incubator at 37° C. for 4 hours. Then, 100 μl of lysis buffer per well was added in and incubated overnight in the CO2 incubator at 37° C. The absorbance at 570 nm was determined by the ELISA reader. The selection of telomerase inhibitors of the anthraquinone compounds provided in the present invention was performed by the […]-driven SEAP system. SEAP is the communication gene in this drug selection model. The SEAP inhibition was shown as follows. […] Subsequently, the linear slope of absorbance to the measuring time was calculated, and the variance of absorbance at 405 nm per minute was represented and compared with the SEAP-producing result of drug-untreated H1299 cells. In addition, the influence of the cell-treated drug solution to the cellular proliferation and the drug toxicity to the cells were considered, and the cellular growth was evaluated by the MTT assay. The drug-treated cells were analyzed by the SEAP assay and the data analysis of MTT assay at the same time. Both results were compared so as to delete the influence of cell number or the activity to SEAP, and the dose-dependent phenomenon could be anticipated in the range of drug concentration designed by the laboratory. […] Since the chemically-synthetic drugs have colors thereon, the SEAP value of drug-treatment without cells was also determined to be the background value which was deducted while treating with the drugs. The candidate drug for inhibiting telomerase on the hTERT gene expression level was evaluated and anticipated.

MTT assay in BJ1 cells = assay type: cell-based; details: human, hTERT-BJ1-PTERT(3.4)-SEAP cells, BJ1, read-out: MTT (Inhibition μM ± SD); for viability at 48 h, 1 µM: compound concentration 1 μM; for viability at 48 h, 10 µM: compound concentration 10 μM; for viability at 48 h, 100 µM: compound concentration 100 μM
Protocol: A total of 2×10^3 […] cells were seeded in the 96-well cell culture plate, and incubated with DMEM (GIBCO®)/glucose mixture and Medium 199 (GIBCO®)/10% FBS/1 mM sodium pyruvate (GIBCO®)/4 mM L-glutamine (GIBCO®) mixture at a ratio of 4:1 at 37° C. for 24 hours. […] After 48 hours of drug treatment, the cultured medium were collected for performing the analysis of SEAP activity. The cells were washed with 1×PBS once immediately, and the MTT assay was performed to compare the compounds with the relative toxicity or the influence to the proliferation and activity. Mitochondria is the place for cellular respiration, and there are many reductive reactions catalyzed by dehydrogenases. MTT is a water-soluble yellow compound, and the […] will be formed after reduction. This crystal can be dissolved in the organic solvent, and has high absorbance at the wavelength of 570 nm. The higher cellular activity or more cell numbers, the more generated crystal violets. Therefore, the cellular activity and cell number can be obtained by the MTT assay. MTT solution was prepared by dissolving MTT powder in PBS solution to achieve 5 mg/ml, filtrated and stored at 4° C. Lysis buffer contained 20% (w/v) of SDS in 50% of N,N-dimethylformamide (DMF, Riedel-deHaën). After the cells were incubated in the 96-well culture plate, the original medium was discarded, 100 μl of the fresh serum-free medium per well and 25 μl of MTT solution per well were added in respectively, and the cells were further incubated in the CO2 incubator at 37° C. for 4 hours. Then, 100 μl of lysis buffer per well was added in and incubated overnight in the CO2 incubator at 37° C. The absorbance at 570 nm was determined by the ELISA reader.

hTERT expression = experiment: SEAP assay in hTERT-BJ1-PTERT(3.4)-SEAP cells; assay type: cell-based; details: Homo sapiens, read-out: SEAP (Inhibition μM ± SD)
Protocol: A total of 2×10^3 hTERT-BJ1-PTERT(3.4)-SEAP cells were seeded in the 96-well cell culture plate, and incubated with DMEM (GIBCO®)/glucose mixture and Medium 199 (GIBCO®)/10% FBS/1 mM sodium pyruvate (GIBCO®)/4 mM L-glutamine (GIBCO®) mixture at a ratio of 4:1 at 37° C. for 24 hours. When the cells were attached in the bottom of the well, the seriously-diluted compounds with different concentrations ([…]) were treated with the cells for 48 hours, and the PTERT(3.4)-SEAP cells without drug treatment were being the control. After 48 hours of drug treatment, the cultured medium were collected for performing the analysis of SEAP activity. The cells were washed with 1×PBS once immediately, and the MTT assay was performed to compare the compounds with the relative toxicity or the influence to the proliferation and activity.
The cellular medium after the cellular incubation was transferred into the eppondorf tube, and the activity of endogeneous alkaline phosphatase was inactivated at 65° C. for 10 minutes. After centrification, the mixture was obtained by mixing 50 μl of the supernatant with the equal volume of the SEAP buffer. The mixture and the substrate (120 mM of p-nitrophenylphosphate) were preheated at 37° C. for 10 minutes respectively, and the mixture and the substrate were mixed at a ratio of 1:10 and reacted at 37° C. The absorbance of visible light at 405 nm was determined at the appropriate time intervals, and the enzymatic activity of SEAP was represented by the speed of the increasing absorbance at 405 nm.

[1] = BJ1, compound concentration 1 μM
[2] = BJ1, compound concentration 10 μM
[3] = BJ1, compound concentration 100 μM

SMILES	viability at 24 h, 1 µM (MTT assay in H1299 cells)	viability at 24 h, 10 µM (MTT assay in H1299 cells)	viability at 24 h, 100 µM (MTT assay in H1299 cells)	viability at 48 h, 1 µM (MTT assay in BJ1 cells)	viability at 48 h, 10 µM (MTT assay in BJ1 cells)	viability at 48 h, 100 µM (MTT assay in BJ1 cells)	activity at 10 µM (hTERT expression)	activity at 100 µM (hTERT expression)	melting point	activity at 1 µM (hTERT expression; [1])	activity at 10 µM (hTERT expression; [2])	activity at 100 µM (hTERT expression; [3])	activity at 1 µM (hTERT expression)
O=C(CCl)Nc1ccc2c(c1)C(=O)c1cc(NC(=O)CCl)ccc1C2=O [Compound 3, 2,7-bis(chloroacetamido)anthraquinone]	58 ± 44%	5 ± 3%	1%	105 ± 2%	89 ± 3%	88 ± 2%	69 ± 34%	135 ± 21%	286 °C				
CCN(CC)CC(=O)Nc1ccc2c(c1)C(=O)c1cc(NC(=O)CN(CC)CC)ccc1C2=O [Compound 4, 2,7-Bis[2-(diethylamino)acetamido]anthraquinone]	101 ± 8%	47 ± 7%	25 ± 3%	116 ± 4%	67 ± 2%	50 ± 1%			241 °C	26 ± 4%	131 ± 57%	116 ± 34%	
CCCCNCC(=O)Nc1ccc2c(c1)C(=O)c1cc(NC(=O)CNCCCC)ccc1C2=O [Compound 5, 2,7-Bis[2-(butylamino)acetamido]anthraquinone]	91 ± 16%	17 ± 9%	15 ± 11%	103 ± 1%	41 ± 1%	43 ± 1%			125 °C	27 ± 18%	24 ± 24%	80 ± 14%	
O=C(CN1CCCCC1)Nc1ccc2c(c1)C(=O)c1cc(NC(=O)CN3CCCCC3)ccc1C2=O [Compound 7, 2,7-Bis[2-(piperidino)acetamido]anthraquinone]	50 ± 16%	37 ± 15%	35 ± 11%	89 ± 1%	78 ± 3%	22 ± 2%			243 °C	118 ± 16%	121 ± 3%	103 ± 5%	
CCNCC(=O)Nc1ccc2c(c1)C(=O)c1cc(NC(=O)CNCC)ccc1C2=O [Compound 10, 2,7-Bis[2-(ethylamino)acetamido]anthraquinone]	52 ± 11%	24 ± 5%	3 ± 4%	72 ± 2%	56 ± 2%	37 ± 1%	41 ± 4%	17 ± 21%	145 °C				90 ± 5%
CN1CCN(CC(=O)Nc2ccc3c(c2)C(=O)c2cc(NC(=O)CN4CCN(C)CC4)ccc2C3=O)CC1 [Compound 11, 2,7-Bis[2-(N-methylpiperazino)acetamido]anthraquinone]	90 ± 14%	71 ± 4%	37 ± 6%	86 ± 1%	69 ± 1%	47 ± 3%			173 °C	61 ± 21%	68 ± 21%	97 ± 30%	
CC(C)NCC(=O)Nc1ccc2c(c1)C(=O)c1cc(NC(=O)CNC(C)C)ccc1C2=O [Compound 13, 2,7-Bis[2-(isopropylamino)acetamido]anthraquinone]	78 ± 10%	26 ± 15%	6 ± 11%	89 ± 1%	41 ± 2%	39 ± 1%	55 ± 19%	45 ± 11%	158 °C				79 ± 14%
CC(C)CNCC(=O)Nc1ccc2c(c1)C(=O)c1cc(NC(=O)CNCC(C)C)ccc1C2=O [Compound 14, 2,7-Bis[2-(isobutylamino)acetamido]anthraquinone]	108 ± 8%	39 ± 10%	11 ± 5%	107 ± 3%	37%	39%			146 °C	83 ± 5%	44 ± 2%	40 ± 3%	
CCCCNCCC(=O)Nc1ccc2c(c1)C(=O)c1cc(NC(=O)CCNCCCC)ccc1C2=O [Compound 17, 2,7-Bis[3-(butylamino)propionamido]anthraquinone]	82 ± 12%	52 ± 4%	14 ± 10%	80 ± 3%	70 ± 1%	40%			168 °C	88 ± 34%	95 ± 46%	111 ± 25%	
O=C(CCN1CCCCC1)Nc1ccc2c(c1)C(=O)c1cc(NC(=O)CCN3CCCCC3)ccc1C2=O [Compound 19, 2,7-Bis[3-(piperidino)propionamido]anthraquinone]	87 ± 15%	44 ± 7%	18 ± 9%	92 ± 6%	54 ± 2%	41 ± 2%			266 °C	186 ± 47%	226 ± 51%	234 ± 20%	

Reference: patent US20090253709A1 (NATIONAL DEFENSE MEDICAL CENTER, priority 2008, published 2009)
